Molecules are shown by their SMILES.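 Exposure lasted 48 hours, with cells grown in 96-well plates and compounds tested at five concentrations. GI50 marks 50% less growth. The concentration for full growth arrest is given as TGI.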

Some test systems named below: NCI-H460 lung; KM12 colon; SF-295 CNS; NCI-H23 lung; OVCAR-3 ovarian; TK-10 renal; UACC-62 melanoma; SNB-19 CNS; IGROV1 ovarian; OVCAR-5 ovarian.
Assay in all cases: growth of human tumour cells (NCI), 48 h

Regarding `CCCO[C@@H]1[C@@H](OC(C)=O)[C@@H](OC(C)=O)C(C)(C)/C=C/[C@H](C)C(=O)[C@@]2(OC(C)=O)C[C@@](C)(OC(C)=O)[C@H](OC(C)=O)[C@@H]2[C@H]2OC(=O)CC[C@@]12OC(=O)c1ccccc1`, the TGI in the experiment on NCI-H460 lung, in the experiment on KM12 colon, in the experiment with SF-295 CNS, with NCI-H23 lung, with OVCAR-3 ovarian and with TK-10 renal was > 25 µM throughout. The TGI with UACC-62 melanoma, in the experiment on SNB-19 CNS, with IGROV1 ovarian and with OVCAR-5 ovarian was > 25 µM throughout.

With `C(=Nc1ccc2c(c1)Cc1ccccc1-2)c1ccccn1`, the TGI in the experiment on NCI-H460 lung, in the experiment on KM12 colon, with SF-295 CNS, in the experiment with NCI-H23 lung, with OVCAR-3 ovarian and in the experiment on TK-10 renal was > 100 µM each time. The TGI in the experiment on UACC-62 melanoma, in the experiment with SNB-19 CNS, with IGROV1 ovarian and in the experiment on OVCAR-5 ovarian was > 100 µM each time.

Regarding `COc1ccc2c(c1)c(-c1nc(-c3c[nH]c4ncccc34)cs1)cn2CCCCN1CCCCC1`, the GI50 in the experiment on NCI-H460 lung was 1.81 µM; with SF-295 CNS, 1.6 µM; in the experiment on OVCAR-3 ovarian, 1.76 µM; in the experiment on TK-10 renal, 1.51 µM. In addition, the TGI amounted to 3.5 µM in the experiment with NCI-H460 lung, 3.02 µM with SF-295 CNS, 3.24 µM in the experiment on OVCAR-3 ovarian and 2.93 µM in the experiment on TK-10 renal.

For `COc1ccc(/C=N/n2cnc3c(c2=O)SC(=C(C#N)C#N)N3c2ccccc2)cc1`, the TGI in the experiment with NCI-H460 lung, in the experiment on KM12 colon, in the experiment with SF-295 CNS, with NCI-H23 lung, in the experiment with OVCAR-3 ovarian and in the experiment on TK-10 renal was > 100 µM in each case. Also, the TGI in the experiment on UACC-62 melanoma, with SNB-19 CNS, in the experiment on IGROV1 ovarian and in the experiment with OVCAR-5 ovarian was > 100 µM throughout.

With `CCC(=O)OCN(C)c1nc(N(C)COC(=O)CC)nc(N(C)COC(=O)CC)n1`, the TGI in the experiment on NCI-H460 lung, with KM12 colon, in the experiment on SF-295 CNS, in the experiment with NCI-H23 lung, with OVCAR-3 ovarian and in the experiment on TK-10 renal was > 100 µM each time. In addition, the TGI was 35.8 µM in the experiment on UACC-62 melanoma, > 100 µM with SNB-19 CNS, > 100 µM in the experiment with IGROV1 ovarian and > 100 µM in the experiment on OVCAR-5 ovarian.

Take `O=C1c2ccccc2OCC12OC21C=CC(Cl)=CC1` (configuration not stated): the TGI was 47.9 µM with NCI-H460 lung; 41.9 µM in the experiment with KM12 colon; 37.9 µM in the experiment with NCI-H23 lung; 42.1 µM with OVCAR-3 ovarian; > 100 µM in the experiment with TK-10 renal; > 100 µM in the experiment with UACC-62 melanoma. In addition, the TGI with SNB-19 CNS is 80.3 µM; in the experiment on IGROV1 ovarian, > 100 µM; in the experiment on OVCAR-5 ovarian, 81.3 µM.

For `CCCCC1C=Cn2c(=O)oc3c(OC(C)C)c(C)c(O)c1c32` (configuration not stated), the TGI in the experiment on NCI-H460 lung turned out to be 8.39 µM; in the experiment with KM12 colon it was 8.26 µM; with SF-295 CNS, 7.16 µM; with NCI-H23 lung it was 4.71 µM; in the experiment with OVCAR-3 ovarian, 14.8 µM; in the experiment with TK-10 renal, 18.7 µM. Also, the TGI worked out at 2.97 µM in the experiment with UACC-62 melanoma, 13.3 µM in the experiment on SNB-19 CNS, 10.1 µM in the experiment with IGROV1 ovarian and 15.1 µM in the experiment with OVCAR-5 ovarian.

Regarding `Nc1nc(SCc2ccccc2Cl)c2[nH]cnc2n1`, the TGI is > 100 µM in the experiment on NCI-H460 lung; > 100 µM in the experiment with KM12 colon; > 100 µM with SF-295 CNS; > 100 µM in the experiment with NCI-H23 lung; > 100 µM in the experiment with OVCAR-3 ovarian; 67 µM with TK-10 renal. Also, the TGI with UACC-62 melanoma, with SNB-19 CNS, with IGROV1 ovarian and with OVCAR-5 ovarian was > 100 µM in each case.

Consider `CCOC(=O)c1sc2nc(SC)nc(Nc3ccc4c(c3)OCCO4)c2c1N`, for which the TGI is > 100 µM in the experiment on NCI-H460 lung; 78.5 µM in the experiment with KM12 colon; 58.1 µM in the experiment with SF-295 CNS; 36.5 µM in the experiment on NCI-H23 lung; 26.7 µM in the experiment on OVCAR-3 ovarian; 30.3 µM with TK-10 renal. In addition, the TGI in the experiment on UACC-62 melanoma was 23.5 µM; in the experiment with SNB-19 CNS it was > 100 µM; in the experiment on IGROV1 ovarian it was 78.6 µM; with OVCAR-5 ovarian, 54.7 µM.

As to `O=C(CBr)c1ccc2cc(Br)c3ccccc3c2c1`, the TGI in the experiment on NCI-H460 lung was found to be 54.4 µM; in the experiment on KM12 colon, 44.1 µM; with SF-295 CNS, 56.7 µM; with NCI-H23 lung, 35.3 µM; in the experiment with OVCAR-3 ovarian, 46.9 µM; in the experiment on TK-10 renal, 36.9 µM. Moreover, the TGI in the experiment with UACC-62 melanoma was 29.8 µM; with SNB-19 CNS it was 64.6 µM; in the experiment on IGROV1 ovarian, 62.4 µM; in the experiment on OVCAR-5 ovarian, 57.9 µM.

For `C=CCCC1(C)CCCNC1=S` (configuration not stated), the TGI in the experiment on NCI-H460 lung, in the experiment with KM12 colon, in the experiment with SF-295 CNS, with NCI-H23 lung, with OVCAR-3 ovarian and in the experiment with TK-10 renal was > 100 µM throughout. Besides, the TGI with UACC-62 melanoma, in the experiment with SNB-19 CNS, in the experiment on IGROV1 ovarian and in the experiment with OVCAR-5 ovarian was > 100 µM throughout.

As to `CCCn1cnc2c(SCc3ccc(Cl)cc3)nc(N)nc21`, the TGI with NCI-H460 lung is 40.6 µM; in the experiment on KM12 colon, 58.9 µM; in the experiment on SF-295 CNS, 45.9 µM; with NCI-H23 lung, > 100 µM; in the experiment with OVCAR-3 ovarian, 41.3 µM; with TK-10 renal, 55.1 µM. Moreover, the TGI was 52.8 µM in the experiment with UACC-62 melanoma, > 100 µM with SNB-19 CNS, > 100 µM in the experiment with IGROV1 ovarian and > 100 µM in the experiment on OVCAR-5 ovarian.

With `O=C(N[C@@H](Cc1coc2ccccc12)B(O)O)[C@@H]1C[C@H]2CC[C@@H]1O2`, the GI50 in the experiment with NCI-H460 lung is 30.7 µM; in the experiment with KM12 colon it was 11.4 µM; in the experiment with SF-295 CNS, 3.93 µM; in the experiment on NCI-H23 lung, 9.18 µM; with OVCAR-3 ovarian, 4.04 µM; in the experiment with TK-10 renal, 2.44 µM. In addition, the GI50 with UACC-62 melanoma was 5.29 µM; in the experiment on SNB-19 CNS, 4.98 µM; with IGROV1 ovarian it was 16.1 µM; with OVCAR-5 ovarian it was 6.8 µM. The TGI with NCI-H460 lung is > 100 µM; in the experiment with KM12 colon, 57.9 µM; in the experiment on SF-295 CNS, 17.6 µM; with NCI-H23 lung it was > 100 µM; in the experiment with OVCAR-3 ovarian, > 100 µM; in the experiment with TK-10 renal, 11.5 µM. Further, the TGI with UACC-62 melanoma was 55.2 µM; with SNB-19 CNS, > 100 µM; in the experiment with IGROV1 ovarian, > 100 µM; with OVCAR-5 ovarian, > 100 µM.

Source of the values: PubChem BioAssay (NCI).
